Key:
Assay type in all cases: cell-based, human
pERK/pAKT = assay: High-throughput western analysis of pERK/pAKT re-activation by RTK ligands under BRAFi/MEKi
[1] = test system: six V600E BRAF melanoma cell lines; assay: Screening of recombinant RTK ligands for ability to confer resistance to BRAFi (PLX4720) or MEKi (PD184352) (Table 4); parameters: ability of recombinant RTK ligand to confer resistance / ability of recombinant RTK ligand to confer resistance (screening value): scale not given here
Procedure, shortened: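 Six V600E BRAF melanoma lines treated with PLX4720 or PD184352 after addition of 22 recombinant RTK ligands, scored for drug resistance. Activation of selected RTKs confirmed by western blotting and high-throughput tyrosine kinase phosphorylation profiling.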

[2] = test system: V600E BRAF melanoma cell lines; assay: HGF-induced / stromal resistance of melanoma cell lines to BRAF, MEK and AKT inhibitors and its reversal

HGF: paracrine cellular growth factor, ligand of the RTK c-MET
activation of pAKT by HGF over time (pERK/pAKT; under BRAFi (PLX4720)): sustained over time
reactivation of pERK by HGF (pERK/pAKT; under BRAFi (PLX4720)): substantially reactivate pERK
re-activation of pERK/pAKT (pERK/pAKT; under BRAFi (PLX4720), after 1 hour of cytokine treatment, six V600E BRAF melanoma cell lines): reactivate both ERK and AKT
reactivation of pERK by HGF (pERK/pAKT; under MEKi (PD184352)): not under MEKi
activation of pAKT by RTK ligands (pERK/pAKT; under PLX4720, FIG. 10B): activates AKT in every cell lines tested
duration of ERK/AKT activation (pERK/pAKT; under PLX4720 treatment): long lasting
ability of recombinant RTK ligand to confer resistance ([1]; A2058, PD184352 - 1 uM, ligand 0.4 ng/ml): 1.02
ability of recombinant RTK ligand to confer resistance ([1]; A2058, PD184352 - 1 uM, ligand 1.6 ng/ml): 1.01
ability of recombinant RTK ligand to confer resistance ([1]; A2058, PD184352 - 1 uM, ligand 6.25 ng/ml): 1.10
ability of recombinant RTK ligand to confer resistance ([1]; A2058, PD184352 - 1 uM, ligand 25 ng/ml): 1.10
ability of recombinant RTK ligand to confer resistance ([1]; A2058, PD184352 - 1 uM, ligand 100 ng/ml): 1.66
ability of recombinant RTK ligand to confer resistance ([1]; A2058, PLX4720 - 2 uM, ligand 0.4 ng/ml): 1.03
ability of recombinant RTK ligand to confer resistance ([1]; A2058, PLX4720 - 2 uM, ligand 1.6 ng/ml): 1.02
ability of recombinant RTK ligand to confer resistance ([1]; A2058, PLX4720 - 2 uM, ligand 6.25 ng/ml): 1.12
ability of recombinant RTK ligand to confer resistance ([1]; A2058, PLX4720 - 2 uM, ligand 25 ng/ml): 1.32
ability of recombinant RTK ligand to confer resistance ([1]; A2058, PLX4720 - 2 uM, ligand 100 ng/ml): 1.49
ability of recombinant RTK ligand to confer resistance ([1]; C32, PD184352 - 1 uM, ligand 0.4 ng/ml): 1.10
ability of recombinant RTK ligand to confer resistance ([1]; C32, PD184352 - 1 uM, ligand 1.6 ng/ml): 1.08
ability of recombinant RTK ligand to confer resistance ([1]; C32, PD184352 - 1 uM, ligand 6.25 ng/ml): 1.29
ability of recombinant RTK ligand to confer resistance ([1]; C32, PD184352 - 1 uM, ligand 25 ng/ml): 1.08
ability of recombinant RTK ligand to confer resistance ([1]; C32, PD184352 - 1 uM, ligand 100 ng/ml): 1.96
ability of recombinant RTK ligand to confer resistance ([1]; C32, PLX4720 - 2 uM, ligand 0.4 ng/ml): 1.04
ability of recombinant RTK ligand to confer resistance ([1]; C32, PLX4720 - 2 uM, ligand 1.6 ng/ml): 1.15
ability of recombinant RTK ligand to confer resistance ([1]; C32, PLX4720 - 2 uM, ligand 6.25 ng/ml): 1.42
ability of recombinant RTK ligand to confer resistance ([1]; C32, PLX4720 - 2 uM, ligand 25 ng/ml): 1.96
ability of recombinant RTK ligand to confer resistance ([1]; C32, PLX4720 - 2 uM, ligand 100 ng/ml): 2.01
ability of recombinant RTK ligand to confer resistance ([1]; Colo 829, PD184352 - 1 uM, ligand 0.4 ng/ml): 0.96
ability of recombinant RTK ligand to confer resistance ([1]; Colo 829, PD184352 - 1 uM, ligand 1.6 ng/ml): 0.99
ability of recombinant RTK ligand to confer resistance ([1]; Colo 829, PD184352 - 1 uM, ligand 6.25 ng/ml): 1.12
ability of recombinant RTK ligand to confer resistance ([1]; Colo 829, PD184352 - 1 uM, ligand 25 ng/ml): 1.41
ability of recombinant RTK ligand to confer resistance ([1]; Colo 829, PD184352 - 1 uM, ligand 100 ng/ml): 1.89
ability of recombinant RTK ligand to confer resistance ([1]; Colo 829, PLX4720 - 2 uM, ligand 0.4 ng/ml): 1.00
ability of recombinant RTK ligand to confer resistance ([1]; Colo 829, PLX4720 - 2 uM, ligand 1.6 ng/ml): 1.02
ability of recombinant RTK ligand to confer resistance ([1]; Colo 829, PLX4720 - 2 uM, ligand 6.25 ng/ml): 1.14
ability of recombinant RTK ligand to confer resistance ([1]; Colo 829, PLX4720 - 2 uM, ligand 25 ng/ml): 1.35
ability of recombinant RTK ligand to confer resistance ([1]; Colo 829, PLX4720 - 2 uM, ligand 100 ng/ml): 1.71
ability of recombinant RTK ligand to confer resistance ([1]; G-361, PD184352 - 1 uM, ligand 0.4 ng/ml): 1.17
ability of recombinant RTK ligand to confer resistance ([1]; G-361, PD184352 - 1 uM, ligand 1.6 ng/ml): 1.03
ability of recombinant RTK ligand to confer resistance ([1]; G-361, PD184352 - 1 uM, ligand 6.25 ng/ml): 1.19
ability of recombinant RTK ligand to confer resistance ([1]; G-361, PD184352 - 1 uM, ligand 25 ng/ml): 1.68
ability of recombinant RTK ligand to confer resistance ([1]; G-361, PD184352 - 1 uM, ligand 100 ng/ml): 1.10
ability of recombinant RTK ligand to confer resistance ([1]; G-361, PLX4720 - 2 uM, ligand 0.4 ng/ml): 0.97
ability of recombinant RTK ligand to confer resistance ([1]; G-361, PLX4720 - 2 uM, ligand 1.6 ng/ml): 1.03
ability of recombinant RTK ligand to confer resistance ([1]; G-361, PLX4720 - 2 uM, ligand 6.25 ng/ml): 1.24
ability of recombinant RTK ligand to confer resistance ([1]; G-361, PLX4720 - 2 uM, ligand 25 ng/ml): 2.27
ability of recombinant RTK ligand to confer resistance ([1]; G-361, PLX4720 - 2 uM, ligand 100 ng/ml): 9.24
ability of recombinant RTK ligand to confer resistance ([1]; SK-MEL-5, PD184352 - 1 uM, ligand 0.4 ng/ml): 0.99
ability of recombinant RTK ligand to confer resistance ([1]; SK-MEL-5, PD184352 - 1 uM, ligand 1.6 ng/ml): 1.17
ability of recombinant RTK ligand to confer resistance ([1]; SK-MEL-5, PD184352 - 1 uM, ligand 6.25 ng/ml): 1.16
ability of recombinant RTK ligand to confer resistance ([1]; SK-MEL-5, PD184352 - 1 uM, ligand 25 ng/ml): 1.81
ability of recombinant RTK ligand to confer resistance ([1]; SK-MEL-5, PD184352 - 1 uM, ligand 100 ng/ml): 2.32
ability of recombinant RTK ligand to confer resistance ([1]; SK-MEL-5, PLX4720 - 2 uM, ligand 0.4 ng/ml): 0.98
ability of recombinant RTK ligand to confer resistance ([1]; SK-MEL-5, PLX4720 - 2 uM, ligand 1.6 ng/ml): 1.37
ability of recombinant RTK ligand to confer resistance ([1]; SK-MEL-5, PLX4720 - 2 uM, ligand 6.25 ng/ml): 1.35
ability of recombinant RTK ligand to confer resistance ([1]; SK-MEL-5, PLX4720 - 2 uM, ligand 25 ng/ml): 1.95
ability of recombinant RTK ligand to confer resistance ([1]; SK-MEL-5, PLX4720 - 2 uM, ligand 100 ng/ml): 1.93
ability of recombinant RTK ligand to confer resistance ([1]; SK-MEL-28, PD184352 - 1 uM, ligand 0.4 ng/ml): 1.11
ability of recombinant RTK ligand to confer resistance ([1]; SK-MEL-28, PD184352 - 1 uM, ligand 1.6 ng/ml): 1.16
ability of recombinant RTK ligand to confer resistance ([1]; SK-MEL-28, PD184352 - 1 uM, ligand 6.25 ng/ml): 1.22
ability of recombinant RTK ligand to confer resistance ([1]; SK-MEL-28, PD184352 - 1 uM, ligand 25 ng/ml): 1.46
ability of recombinant RTK ligand to confer resistance ([1]; SK-MEL-28, PD184352 - 1 uM, ligand 100 ng/ml): 1.87
ability of recombinant RTK ligand to confer resistance ([1]; SK-MEL-28, PLX4720 - 2 uM, ligand 0.4 ng/ml): 1.05
ability of recombinant RTK ligand to confer resistance ([1]; SK-MEL-28, PLX4720 - 2 uM, ligand 1.6 ng/ml): 1.42
ability of recombinant RTK ligand to confer resistance ([1]; SK-MEL-28, PLX4720 - 2 uM, ligand 6.25 ng/ml): 1.55
ability of recombinant RTK ligand to confer resistance ([1]; SK-MEL-28, PLX4720 - 2 uM, ligand 25 ng/ml): 3.85
ability of recombinant RTK ligand to confer resistance ([1]; SK-MEL-28, PLX4720 - 2 uM, ligand 100 ng/ml): 2.20
ability of RTK ligand to confer primary resistance ([1]; six V600E BRAF melanoma cell lines, BRAFi (PLX4720) or MEKi (PD184352)): confer substantial primary resistance
HGF-conferred resistance, BRAFi versus MEKi ([2]; FIG. 11C): better resistance to BRAFi than MEKi
HGF-conferred resistance ([2]; combination of BRAFi and AKTi (MK-2206)): confers resistance
